Test results published in patent publication US10624897B2, “Chlorobenzene substituted azaaryl compounds” (TAIPEI MEDICAL UNIVERSITY, priority 2015, dated 2020).

Assays:
Assay in all cases: Kinase binding assay (Kd)
[1] = molecular target: T1, TSSK1B (Homo sapiens, UniProt Q9BXA7)
T1 construct: made in house; host or cells: E. coli BL21-derived host (T7 phage) or HEK-293
Method: (§1) Kinase assays. For most assays, kinase-tagged T7 phage strains were prepared in an E. coli host derived from the BL21 strain. E. coli were grown to log-phase and infected with T7 phage and incubated with shaking at 32° C. until lysis. The lysates were centrifuged and filtered to remove cell debris. The remaining kinases were produced in HEK-293 cells and subsequently tagged with DNA for qPCR detection. […] The liganded beads were blocked with excess biotin and washed with blocking buffer (SeaBlock (Pierce), 1% BSA, 0.05% Tween 20, 1 mM DTT) to remove unbound ligand and to reduce non-specific binding. […] All reactions were performed in polystyrene 96-well plates in a final volume of 0.135 ml. […] The kinase concentration in the eluates was measured by qPCR.
(§2) An 11-point 3-fold serial dilution of each test compound was prepared in 100% DMSO at 100× final test concentration and subsequently diluted to 1× in the assay (final DMSO concentration=1%). Most Kds were determined using a compound top concentration=30,000 nM.
(§3) Binding constants (Kds) were calculated with a standard dose-response curve using the Hill equation: […]
(§4) The Hill Slope was set to −1. Curves were fitted using a non-linear least square fit with the Levenberg-Marquardt algorithm.

[2] = molecular target: T2, MLK1 (Homo sapiens, UniProt P80192)
T2 construct: made in house; host or cells: E. coli BL21-derived host (T7 phage) for most kinases, HEK-293 for the rest
Method: as §1, §2, §3, §4

[3] = molecular target: T3, CDK3 (Homo sapiens, UniProt Q00526)
T3 construct: made in house; host or cells: E. coli BL21-derived host (T7 phage) or HEK-293
Method: as §1, §2, §3, §4

[4] = molecular target: T4, LKB1 (Homo sapiens, UniProt Q15831)
T4 construct: made in house; host or cells: E. coli BL21-derived host (T7 phage) for most kinases, HEK-293 for the rest
Method: as §1, §2, §3, §4

[5] = molecular target: T5, IKK-beta (Homo sapiens, UniProt O14920)
T5 construct: made in house; host or cells: E. coli BL21-derived host (T7 phage) for most kinases, HEK-293 for the rest
Method: as §1, §2, §3, §4

[6] = molecular target: T6, PIK3CA (Homo sapiens, UniProt P42336)
T6 construct: made in house; host or cells: E. coli BL21-derived host (T7 phage) for most kinases, HEK-293 for the rest
Method: as §1, §2, §3, §4

[7] = molecular target: T7, ACVR1B (Homo sapiens, UniProt P36896)
T7 construct: made in house; host or cells: E. coli BL21-derived host (T7 phage) or HEK-293
Method: as §1, §2, §3, §4

[8] = molecular target: T8, PDGFRB (Homo sapiens, UniProt P09619)
T8 construct: made in house; host or cells: E. coli BL21-derived host (T7 phage) or HEK-293
Method: as §1, §2, §3, §4

[9] = molecular target: T9, INSR (Homo sapiens, UniProt P06213)
T9 construct: made in house; host or cells: E. coli BL21-derived host (T7 phage) for most kinases, HEK-293 for the rest
Method: as §1, §2, §3, §4

[10] = molecular target: T10, ADCK3 (Homo sapiens, UniProt Q8NI60)
T10 construct: made in house; host or cells: E. coli BL21-derived host (T7 phage) or HEK-293
Method: as §1, §2, §3, §4

[11] = molecular target: T11, CSNK1D (Homo sapiens, UniProt P48730)
T11 construct: made in house; host or cells: E. coli BL21-derived host (T7 phage) or HEK-293
Method: as §1, §2, §3, §4

[12] = molecular target: T12, CDK9 (Homo sapiens, UniProt P50750)
T12 construct: made in house; host or cells: E. coli BL21-derived host (T7 phage) or HEK-293
Method: as §1, §2, §3, §4

[13] = molecular target: T13, PLK1 (Homo sapiens, UniProt P53350)
T13 construct: made in house; host or cells: E. coli BL21-derived host (T7 phage) or HEK-293
Method: as §1, §2, §3, §4

[14] = molecular target: T14, PDPK1 (Homo sapiens, UniProt O15530)
T14 construct: made in house; host or cells: E. coli BL21-derived host (T7 phage) for most kinases, HEK-293 for the rest
Method: as §1, §2, §3, §4

[15] = molecular target: T15, SRPK3 (Homo sapiens, UniProt Q9UPE1)
T15 construct: made in house; host or cells: E. coli BL21-derived host (T7 phage) or HEK-293
Method: as §1, §2, §3, §4

[16] = molecular target: T16, PIM3 (Homo sapiens, UniProt Q86V86)
T16 construct: made in house; host or cells: E. coli BL21-derived host (T7 phage) or HEK-293
Method: as §1, §2, §3, §4

[17] = molecular target: T17, RAF1 (Homo sapiens, UniProt P04049)
T17 construct: made in house; host or cells: E. coli BL21-derived host (T7 phage) or HEK-293
Method: as §1, §2, §3, §4

[18] = molecular target: T18, p38-beta (Homo sapiens, UniProt Q15759)
T18 construct: made in house; host or cells: E. coli BL21-derived host (T7 phage) for most kinases, HEK-293 for the rest
Method: as §1, §2, §3, §4

[19] = molecular target: T19, BRAF (Homo sapiens, UniProt P15056)
T19 construct: made in house; host or cells: E. coli BL21-derived host (T7 phage) or HEK-293
Method: as §1, §2, §3, §4

[20] = molecular target: T20, PDGFRA (Homo sapiens, UniProt P16234)
T20 construct: made in house; host or cells: E. coli BL21-derived host (T7 phage) for most kinases, HEK-293 for the rest
Method: as §1, §2, §3, §4

[21] = molecular target: T21, YANK3 (Homo sapiens, UniProt Q86UX6)
T21 construct: made in house; host or cells: E. coli BL21-derived host (T7 phage) or HEK-293
Method: as §1, §2, §3, §4

[22] = molecular target: T22, p38-alpha (Homo sapiens, UniProt Q16539)
T22 construct: made in house; host or cells: E. coli BL21-derived host (T7 phage) for most kinases, HEK-293 for the rest
Method: as §1, §2, §3, §4

[23] = molecular target: T23, GSK3B (Homo sapiens, UniProt P49841)
T23 construct: made in house; host or cells: E. coli BL21-derived host (T7 phage) for most kinases, HEK-293 for the rest
Method: as §1, §2, §3, §4

[24] = molecular target: T24, EGFR (Homo sapiens, UniProt P00533)
T24 construct: made in house; host or cells: E. coli BL21-derived host (T7 phage) or HEK-293
Method: as §1, §2, §3, §4

[25] = molecular target: T25, ERBB4 (Homo sapiens, UniProt Q15303)
T25 construct: made in house; host or cells: E. coli BL21-derived host (T7 phage) for most kinases, HEK-293 for the rest
Method: as §1, §2, §3, §4

[26] = molecular target: T26, DCAMKL1 (Homo sapiens, UniProt O15075)
T26 construct: made in house; host or cells: E. coli BL21-derived host (T7 phage) or HEK-293
Method: as §1, §2, §3, §4

[27] = molecular target: T27, FGFR1 (Homo sapiens, UniProt P11362)
T27 construct: made in house; host or cells: E. coli BL21-derived host (T7 phage) or HEK-293
Method: as §1, §2, §3, §4

[28] = molecular target: T28, ZAP70 (Homo sapiens, UniProt P43403)
T28 construct: made in house; host or cells: E. coli BL21-derived host (T7 phage) or HEK-293
Method: as §1, §2, §3, §4

[29] = molecular target: T29, PIM2 (Homo sapiens, UniProt Q9P1W9)
T29 construct: made in house; host or cells: E. coli BL21-derived host (T7 phage) for most kinases, HEK-293 for the rest
Method: as §1, §2, §3, §4

[30] = molecular target: T30, AKT1 (Homo sapiens, UniProt P31749)
T30 construct: made in house; host or cells: E. coli BL21-derived host (T7 phage) or HEK-293
Method: as §1, §2, §3, §4

[31] = molecular target: T31, FGFR2 (Homo sapiens, UniProt P21802)
T31 construct: made in house; host or cells: E. coli BL21-derived host (T7 phage) or HEK-293
Method: as §1, §2, §3, §4

[32] = molecular target: T32, EPHA2 (Homo sapiens, UniProt P29317)
T32 construct: made in house; host or cells: E. coli BL21-derived host (T7 phage) for most kinases, HEK-293 for the rest
Method: as §1, §2, §3, §4

[33] = molecular target: T33, MKNK1 (Homo sapiens, UniProt Q9BUB5)
T33 construct: made in house; host or cells: E. coli BL21-derived host (T7 phage) for most kinases, HEK-293 for the rest
Method: as §1, §2, §3, §4

[34] = molecular target: T34, CSF1R (Homo sapiens, UniProt P07333)
T34 construct: made in house; host or cells: E. coli BL21-derived host (T7 phage) or HEK-293
Method: as §1, §2, §3, §4

[35] = molecular target: T35, AURKB (Homo sapiens, UniProt Q96GD4)
T35 construct: made in house; host or cells: E. coli BL21-derived host (T7 phage) or HEK-293
Method: as §1, §2, §3, §4

[36] = molecular target: T36, MEK2 (Homo sapiens, UniProt P36507)
T36 construct: made in house; host or cells: E. coli BL21-derived host (T7 phage) for most kinases, HEK-293 for the rest
Method: as §1, §2, §3, §4

[37] = molecular target: T37, MAPKAPK2 (Homo sapiens, UniProt P49137)
T37 construct: made in house; host or cells: E. coli BL21-derived host (T7 phage) for most kinases, HEK-293 for the rest
Method: as §1, §2, §3, §4

T4 sequence (Q15831 whole entry): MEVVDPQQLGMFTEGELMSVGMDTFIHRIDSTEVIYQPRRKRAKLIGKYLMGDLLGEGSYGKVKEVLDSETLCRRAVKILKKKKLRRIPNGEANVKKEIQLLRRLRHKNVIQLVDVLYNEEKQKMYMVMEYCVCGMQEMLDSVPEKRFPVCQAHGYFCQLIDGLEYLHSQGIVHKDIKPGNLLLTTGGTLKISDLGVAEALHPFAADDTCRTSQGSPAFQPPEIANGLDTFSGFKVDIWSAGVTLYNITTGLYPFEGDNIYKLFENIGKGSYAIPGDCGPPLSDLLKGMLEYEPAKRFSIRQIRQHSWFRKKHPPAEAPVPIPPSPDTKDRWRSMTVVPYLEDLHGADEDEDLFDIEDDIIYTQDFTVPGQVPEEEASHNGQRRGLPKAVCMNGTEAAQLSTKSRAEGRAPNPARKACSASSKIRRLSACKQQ
T31 sequence (P21802 22-821): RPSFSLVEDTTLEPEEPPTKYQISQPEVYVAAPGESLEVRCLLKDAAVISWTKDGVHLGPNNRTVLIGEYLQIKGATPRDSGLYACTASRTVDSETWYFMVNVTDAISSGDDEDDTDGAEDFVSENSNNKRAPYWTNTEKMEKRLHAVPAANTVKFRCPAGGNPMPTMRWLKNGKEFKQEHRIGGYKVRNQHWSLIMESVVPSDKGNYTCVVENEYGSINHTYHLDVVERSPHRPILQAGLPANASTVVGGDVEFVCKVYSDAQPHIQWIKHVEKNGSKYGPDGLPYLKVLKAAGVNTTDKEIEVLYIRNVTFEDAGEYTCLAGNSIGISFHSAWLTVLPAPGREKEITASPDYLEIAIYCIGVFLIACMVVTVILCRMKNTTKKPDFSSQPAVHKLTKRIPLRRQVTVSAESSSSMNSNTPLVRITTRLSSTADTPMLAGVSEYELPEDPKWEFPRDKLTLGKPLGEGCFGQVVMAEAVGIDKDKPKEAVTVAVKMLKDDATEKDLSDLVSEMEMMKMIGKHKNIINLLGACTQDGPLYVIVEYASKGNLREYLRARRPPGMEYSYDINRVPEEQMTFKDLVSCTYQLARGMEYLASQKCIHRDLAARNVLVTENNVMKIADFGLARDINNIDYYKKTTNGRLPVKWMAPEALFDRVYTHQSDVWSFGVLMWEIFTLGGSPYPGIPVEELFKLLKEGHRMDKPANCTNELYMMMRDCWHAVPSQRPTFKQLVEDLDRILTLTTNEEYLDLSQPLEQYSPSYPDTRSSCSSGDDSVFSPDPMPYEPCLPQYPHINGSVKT
T2 sequence (P80192 whole entry): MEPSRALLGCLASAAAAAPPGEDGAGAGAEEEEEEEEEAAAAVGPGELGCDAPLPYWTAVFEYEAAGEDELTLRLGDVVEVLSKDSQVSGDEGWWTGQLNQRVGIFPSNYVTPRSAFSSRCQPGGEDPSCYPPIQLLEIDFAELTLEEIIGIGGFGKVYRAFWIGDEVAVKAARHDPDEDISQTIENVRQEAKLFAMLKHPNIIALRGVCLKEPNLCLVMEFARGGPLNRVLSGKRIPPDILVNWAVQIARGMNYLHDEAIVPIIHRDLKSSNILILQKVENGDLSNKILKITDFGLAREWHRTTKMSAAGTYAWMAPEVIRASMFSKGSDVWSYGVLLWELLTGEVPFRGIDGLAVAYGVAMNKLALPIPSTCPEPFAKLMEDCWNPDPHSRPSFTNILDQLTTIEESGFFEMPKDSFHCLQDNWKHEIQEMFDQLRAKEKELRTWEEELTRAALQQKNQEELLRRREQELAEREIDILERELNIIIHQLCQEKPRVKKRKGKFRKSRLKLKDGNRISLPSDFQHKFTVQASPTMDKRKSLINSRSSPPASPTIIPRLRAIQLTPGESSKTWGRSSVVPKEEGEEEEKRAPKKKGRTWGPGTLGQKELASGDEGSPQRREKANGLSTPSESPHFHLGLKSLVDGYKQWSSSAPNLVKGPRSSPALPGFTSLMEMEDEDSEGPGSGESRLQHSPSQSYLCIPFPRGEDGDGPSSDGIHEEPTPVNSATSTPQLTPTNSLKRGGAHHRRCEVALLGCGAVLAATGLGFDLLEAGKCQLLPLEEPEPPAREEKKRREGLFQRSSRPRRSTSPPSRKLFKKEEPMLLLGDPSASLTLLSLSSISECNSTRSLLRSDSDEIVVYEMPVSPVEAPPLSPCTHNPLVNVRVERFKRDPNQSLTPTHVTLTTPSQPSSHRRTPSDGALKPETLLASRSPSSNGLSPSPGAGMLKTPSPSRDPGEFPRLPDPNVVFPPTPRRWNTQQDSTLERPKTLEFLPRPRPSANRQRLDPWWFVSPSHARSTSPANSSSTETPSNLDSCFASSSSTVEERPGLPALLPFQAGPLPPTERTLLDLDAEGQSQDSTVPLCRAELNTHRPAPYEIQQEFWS
T25 sequence (Q15303 26-1308): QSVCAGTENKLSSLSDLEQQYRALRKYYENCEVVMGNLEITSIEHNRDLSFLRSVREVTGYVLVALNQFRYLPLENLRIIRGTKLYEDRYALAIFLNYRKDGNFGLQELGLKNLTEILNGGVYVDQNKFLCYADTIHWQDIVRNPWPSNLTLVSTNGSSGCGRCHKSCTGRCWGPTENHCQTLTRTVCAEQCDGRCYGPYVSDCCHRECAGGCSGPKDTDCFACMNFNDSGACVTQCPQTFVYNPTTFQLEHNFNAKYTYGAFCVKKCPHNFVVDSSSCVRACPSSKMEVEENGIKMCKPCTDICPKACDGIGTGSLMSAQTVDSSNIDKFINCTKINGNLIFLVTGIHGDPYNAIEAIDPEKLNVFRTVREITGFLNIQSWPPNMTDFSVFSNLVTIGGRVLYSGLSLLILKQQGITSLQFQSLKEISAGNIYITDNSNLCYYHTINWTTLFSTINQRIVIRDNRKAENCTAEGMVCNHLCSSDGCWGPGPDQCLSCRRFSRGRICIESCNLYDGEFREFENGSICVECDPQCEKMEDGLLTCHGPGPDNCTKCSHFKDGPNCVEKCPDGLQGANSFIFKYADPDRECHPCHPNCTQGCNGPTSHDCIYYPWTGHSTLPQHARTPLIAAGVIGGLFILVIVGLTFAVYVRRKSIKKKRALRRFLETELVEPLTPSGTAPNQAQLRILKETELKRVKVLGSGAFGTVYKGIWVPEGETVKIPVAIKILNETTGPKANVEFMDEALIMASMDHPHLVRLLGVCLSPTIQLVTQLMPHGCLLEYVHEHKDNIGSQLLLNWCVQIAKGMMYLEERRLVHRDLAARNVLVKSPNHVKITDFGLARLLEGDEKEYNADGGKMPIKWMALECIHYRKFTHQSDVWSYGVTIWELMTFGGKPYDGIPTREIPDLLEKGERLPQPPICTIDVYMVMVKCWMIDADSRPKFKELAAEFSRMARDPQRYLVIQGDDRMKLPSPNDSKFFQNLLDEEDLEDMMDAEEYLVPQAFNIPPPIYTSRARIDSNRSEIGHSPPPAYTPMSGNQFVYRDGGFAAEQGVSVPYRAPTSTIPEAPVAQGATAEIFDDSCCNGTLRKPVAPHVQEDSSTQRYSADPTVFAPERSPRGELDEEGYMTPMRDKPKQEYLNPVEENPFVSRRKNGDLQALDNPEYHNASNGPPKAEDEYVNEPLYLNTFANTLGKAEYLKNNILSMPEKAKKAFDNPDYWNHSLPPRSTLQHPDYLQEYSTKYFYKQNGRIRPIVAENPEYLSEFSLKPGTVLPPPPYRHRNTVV
T28 sequence (P43403 whole entry): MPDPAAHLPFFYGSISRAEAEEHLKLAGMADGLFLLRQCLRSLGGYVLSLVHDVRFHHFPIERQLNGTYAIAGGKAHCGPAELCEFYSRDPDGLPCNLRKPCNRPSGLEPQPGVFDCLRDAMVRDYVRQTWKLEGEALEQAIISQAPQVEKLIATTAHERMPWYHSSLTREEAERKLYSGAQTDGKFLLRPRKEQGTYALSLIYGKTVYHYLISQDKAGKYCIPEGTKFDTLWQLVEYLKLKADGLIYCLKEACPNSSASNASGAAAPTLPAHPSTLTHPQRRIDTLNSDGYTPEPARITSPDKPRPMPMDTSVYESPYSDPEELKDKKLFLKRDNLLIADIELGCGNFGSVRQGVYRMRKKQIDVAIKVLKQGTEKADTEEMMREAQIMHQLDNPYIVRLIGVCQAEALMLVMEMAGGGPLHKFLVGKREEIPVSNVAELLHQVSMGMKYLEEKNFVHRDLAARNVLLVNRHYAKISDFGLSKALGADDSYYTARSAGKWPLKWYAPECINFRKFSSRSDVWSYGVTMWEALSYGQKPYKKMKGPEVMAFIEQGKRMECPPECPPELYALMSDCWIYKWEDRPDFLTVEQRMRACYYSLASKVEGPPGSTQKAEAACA
T22 sequence (Q16539 whole entry): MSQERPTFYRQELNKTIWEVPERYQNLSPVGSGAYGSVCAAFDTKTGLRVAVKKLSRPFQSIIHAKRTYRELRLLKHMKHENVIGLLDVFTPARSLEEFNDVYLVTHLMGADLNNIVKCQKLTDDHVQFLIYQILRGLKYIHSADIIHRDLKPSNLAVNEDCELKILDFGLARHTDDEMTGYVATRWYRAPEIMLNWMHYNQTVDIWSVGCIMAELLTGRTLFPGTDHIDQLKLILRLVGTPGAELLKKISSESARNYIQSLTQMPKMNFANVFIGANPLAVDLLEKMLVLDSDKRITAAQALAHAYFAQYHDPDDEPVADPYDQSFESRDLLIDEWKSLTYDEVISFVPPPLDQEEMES
T3 sequence (Q00526 whole entry): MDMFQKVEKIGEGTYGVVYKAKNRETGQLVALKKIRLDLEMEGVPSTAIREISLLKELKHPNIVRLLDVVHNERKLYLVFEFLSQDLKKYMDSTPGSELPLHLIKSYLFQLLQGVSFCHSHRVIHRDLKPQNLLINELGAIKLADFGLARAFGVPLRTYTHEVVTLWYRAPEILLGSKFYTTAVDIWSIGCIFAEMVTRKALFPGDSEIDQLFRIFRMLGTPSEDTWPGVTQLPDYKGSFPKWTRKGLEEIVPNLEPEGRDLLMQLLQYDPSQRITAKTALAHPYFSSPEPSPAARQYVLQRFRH

- Kd [1]: > 10 µM
- Kd [2]: > 10 µM
- Kd [3]: > 10 µM
- Kd [4]: > 10 µM
- Kd [5]: > 10 µM
- Kd [6]: > 10 µM
- Kd [7]: > 10 µM
- Kd [8]: 680 nM
- Kd [9]: > 10 µM
- Kd [10]: > 10 µM
- Kd [11]: > 10 µM
- Kd [12]: > 10 µM
- Kd [13]: > 10 µM
- Kd [14]: > 10 µM
- Kd [15]: > 10 µM
- Kd [16]: > 10 µM
- Kd [17]: > 10 µM
- Kd [18]: > 10 µM
- Kd [19]: > 10 µM
- Kd [20]: > 10 µM
- Kd [21]: > 10 µM
- Kd [22]: > 10 µM
- Kd [23]: > 10 µM
- Kd [24]: > 10 µM
- Kd [25]: > 10 µM
- Kd [26]: > 10 µM
- Kd [27]: 130 nM
- Kd [28]: > 10 µM
- Kd [29]: > 10 µM
- Kd [30]: > 10 µM
- Kd [31]: 670 nM
- Kd [32]: > 10 µM
- Kd [33]: > 10 µM
- Kd [34]: 340 nM
- Kd [35]: > 10 µM
- Kd [36]: > 10 µM
- Kd [37]: > 10 µM
SMILES: CCN1CCN(c2ccc(Nc3ncnc(N(C)C(=O)Nc4c(Cl)c(OC)c(Cl)c(OC)c4Cl)n3)cc2)CC1 [MPT0L145, 1-(4-((4-(4-ethylpiperazin-1-yl)phenyl)amino)-1,3,5-triazin-2-yl)-1-methyl-3-(2,4,6-trichloro-3,5-dimethoxyphenyl)urea]
